Active and inactive are the calls of the source. No cut-off for these calls is given here.

Data set [1] addresses Heat shock protein HSP 90-alpha (Homo sapiens) (UniProt P07900). The experiment in a line: Binding affinity to N-terminal His6-tagged HSP90alpha CTD (unknown origin) expressed in Escherichia coli BL21(DE3) at compound to protein ratio of 164 by STD-NMR method.
Data set [2] in a line: Solubility of the compound in buffer solution. In kind it is physicochemical.
The target of data set [3] is Heat shock protein HSP 90-alpha (Homo sapiens) (UniProt P07900). The experiment in a line: Binding affinity to 1H/13C-Ile HSP90alpha CTD (unknown origin) at 1.4 mM by Methyl-TROSY […] spectrum analysis.
Data set [4] shares this target. The experiment in a line: Binding affinity to 1H/13C-Ile HSP90alpha CTD (unknown origin) at 0.9 mM by Methyl-TROSY […] spectrum analysis.
The target is the same in data set [5]. The experiment in a line: Binding affinity to 1H/13C-Ile HSP90alpha CTD (unknown origin) at 2.5 mM by Methyl-TROSY […] spectrum analysis.

As to `CO[C@@H]1[C@@H](O)[C@@H](O)[C@H](Oc2ccc(CCNC(C)=O)c(-c3cccc(F)c3)c2)OC1(C)C` [CEMDOMESPIB], the outcome in data set [1] and in data set [3] was Active. The solubility entry in data set [2] is reported as “Soluble”.
As to `CO[C@@H]1[C@@H](O)[C@@H](O)[C@H](Oc2ccc3cc(NC(C)=O)c(=O)oc3c2C)OC1(C)C`, the outcome in data set [1] and in data set [4] was Active. The solubility entry in data set [2] is on record as “Soluble”.
For the molecule `Nc1ncnc2c1ncn2[C@@H]1O[C@H](COP(=O)(O)OP(=O)(O)NP(=O)(O)O)[C@@H](O)[C@H]1O`, in data set [5], the result was Active.

The record behind these values is ChEMBL document CHEMBL4257528, “Molecular insights into the interaction of Hsp90 with allosteric inhibitors targeting the C-terminal domain” (Medchemcomm, 2018).
